Where two headings read alike, the source gives them in different places.
What was measured:
HPLC logP = format: physicochemical
Plasmopara viticola = assay: Example D: Plasmopara test (grapevine)/protective; format: in vivo; conditions: protective, 6 days after inoculation, vs untreated control; for pest or weed control at 100 g/ha: Plasmopara viticola, 144 h, read-out: Efficacy in %; for Efficacy in %: 100 g/ha
Experimental: Plasmopara test (grapevine)/protective Solvent: 47 parts by weight of acetone Emulsifier: 3 parts by weight of alkylaryl polyglycol ether To produce a suitable preparation of active compound, 1 part by weight of active compound is mixed with the stated amount of solvent and emulsifier, and the concentrate is diluted with water to the desired concentration. To test for protective activity, young plants are sprayed with the preparation of active compound at the stated application rate. […]

Structure (SMILES) | chromatographic logP (HPLC logP; Table 1) | other results
CON=C(C1=NOCCO1)c1ccccc1Oc1nccc(NCCc2ccccc2)n1 [Example 139] | 2.4 | –
CON=C(C1=NOCCO1)c1ccccc1Oc1nccc(OCCc2ccccc2F)n1 [Example 17] | 3.2 | –
CON=C(C1=NOCCO1)c1ccccc1Oc1nccc(OC2CCCCC2)n1 [Example 27] | 3.3 | –
CCCCCCOc1ccnc(Oc2ccccc2C(=NOC)C2=NOCCO2)n1 [drawing 39] | – | Efficacy in % (Plasmopara viticola): 100%
CON=C(C1=NOCCO1)c1ccccc1Oc1nccc(OCCc2ccccc2)n1 [Example 25] | 3.3 | –
CON=C(C1=NOCCO1)c1ccccc1Oc1nccc(OCc2ccccc2)n1 [drawing 38] | – | Efficacy in % (Plasmopara viticola): 100%
C=C(Br)COc1ccnc(Oc2ccccc2C(=NOC)C2=NOCCO2)n1 [Example 169] | 2.7 | –
CCCCCOc1ccnc(Oc2ccccc2C(=NOC)C2=NOCCO2)n1 [Example 14] | 3.3 | pest or weed control at 100 g/ha (Plasmopara viticola): ≤ 100%
CON=C(C1=NOCCO1)c1ccccc1Oc1nccc(OCC(Br)(Br)Br)n1 [Example 11] | 3.2 | pest or weed control at 100 g/ha (Plasmopara viticola): ≤ 100%
CCCCCCCCCCCCCCCCOc1ccnc(Oc2ccccc2C(=NOC)C2=NOCCO2)n1 [Example 163] | > 7.4 | –
CON=C(C1=NOCCO1)c1ccccc1Oc1nccc(OCc2ccc(SC)cc2)n1 [Example 168] | 2.1 | –
CON=C(C1=NOCCO1)c1ccccc1Oc1nccc(OCCc2ccccc2C(F)(F)F)n1 [Example 20] | 3.6 | –
CCCCOc1ccnc(Oc2ccccc2C(=NOC)C2=NOCCO2)n1 [Example 9] | 3 | pest or weed control at 100 g/ha (Plasmopara viticola): ≤ 100%
C/C=C/C=C/COc1ccnc(Oc2ccccc2C(=NOC)C2=NOCCO2)n1 [Example 165] | 3.2 | –
CCCCCCCCCOc1ccnc(Oc2ccccc2C(=NOC)C2=NOCCO2)n1 [Example 35] | 5.1 | –
CON=C(C1=NOCCO1)c1ccccc1Oc1nccc(OCC(Br)(Br)Br)n1 [drawing 37] | – | Efficacy in % (Plasmopara viticola): 100%

Structure (SMILES) | chromatographic logP (HPLC logP; Table 1) | other results
CON=C(C1=NOCCO1)c1ccccc1Oc1nccc(Cl)n1 [II-1, [2-(4-chloro-pyrimidin-2-yloxy)-phenyl]-(5,6-dihydro-[1,4,2]dioxazin-3-yl)-methanone O-methyl oxime] | – | chromatographic logP (HPLC logP): 2
CON=C(C1=NOCCO1)c1ccccc1Oc1nccc(OC(CF)CF)n1 [Example 1, (5,6-dihydro-[1,4,2]dioxazin-3-yl)-{2-[4-(2-fluoro-1-fluoromethyl-ethoxy)-pyrimidin-2-yloxy]-phenyl}-methanone O-methyl oxime] | – | pest or weed control at 100 g/ha (Plasmopara viticola): ≤ 100%; chromatographic logP (HPLC logP): 2.2
CON=C(C1=NOCCO1)c1ccccc1Oc1nccc(SC)n1 [Example 108] | 2.2 | –
CON=C(C1=NOCCO1)c1ccccc1Oc1nccc(OCCC(F)(F)F)n1 [Example 158] | 2.6 | –
CON=C(C1=NOCCO1)c1ccccc1Oc1nccc(OCCF)n1 [Example 38] | 2 | –
C=CCOc1ccnc(Oc2ccccc2C(=NOC)C2=NOCCO2)n1 [Example 48] | 2.4 | –
CON=C(C1=NOCCO1)c1ccccc1Oc1nccc(OC(C)c2ccccc2)n1 (stereo not drawn) [Example 21] | 3.1 | –
CON=C(C1=NOCCO1)c1ccccc1Oc1nccc(OCCc2ccc(Cl)cc2)n1 [Example 26] | 3.5 | –
CON=C(C1=NOCCO1)c1ccccc1Oc1nccc(OC(C)C(F)(F)F)n1 (stereo not drawn) [Example 4] | 2.9 | –
CON=C(C1=NOCCO1)c1ccccc1Oc1nccc(OCc2ccc(C)c(Cl)c2)n1 [Example 86] | 3.7 | –
C/C=C\COc1ccnc(Oc2ccccc2C(=NOC)C2=NOCCO2)n1 [Example 166] | 2.7 | –
CON=C(C1=NOCCO1)c1ccccc1Oc1nccc(OC(C)c2ccccc2Cl)n1 (stereo not drawn) [Example 24] | 3.4 | –
CCCCCCCOc1ccnc(Oc2ccccc2C(=NOC)C2=NOCCO2)n1 [Example 18] | 4.2 | –
CON=C(C1=NOCCO1)c1ccccc1Oc1nccc(OCCCc2ccccc2)n1 [Example 101] | 3.4 | –
CCCCCOc1ccnc(Oc2ccccc2C(=NOC)C2=NOCCO2)n1 [drawing 40] | – | Efficacy in % (Plasmopara viticola): 99%

Second part, led by results:

chromatographic logP (HPLC logP; Table 1) | Structure (SMILES) | other results
3 | CON=C(C1=NOCCO1)c1ccccc1Oc1nccc(OC2CCCC2)n1 [Example 54] | –
2.6 | CON=C(C1=NOCCO1)c1ccccc1Oc1nccc(OCC(F)(F)C(F)F)n1 [Example 157] | –
5.6 | CCCCCCCCCCOc1ccnc(Oc2ccccc2C(=NOC)C2=NOCCO2)n1 [Example 36] | –
4.7 | CCCCCCCCOc1ccnc(Oc2ccccc2C(=NOC)C2=NOCCO2)n1 [Example 23] | –
2.5 | CON=C(C1=NOCCO1)c1ccccc1Oc1nccc(OC(C)C)n1 [Example 7] | pest or weed control at 100 g/ha (Plasmopara viticola): ≤ 100%
4.1 | CON=C(C1=NOCCO1)c1ccccc1Oc1nccc(OCCCCCc2ccccc2)n1 [Example 159] | –
2.9 | CON=C(C1=NOCCO1)c1ccccc1Oc1nccc(OCc2ccccc2F)n1 [Example 15] | –
3.4 | CON=C(C1=NOCCO1)c1ccccc1Oc1nccc(OCC2CCCC2)n1 [Example 58] | –
3.14 | CON=C(C1=NOCCO1)c1ccccc1Oc1nccc(SCc2ccccc2)n1 [Example 120] | –
2.7 | CON=C(C1=NOCCO1)c1ccccc1Oc1nccc(OCC(Cl)Cl)n1 [Example 10] | pest or weed control at 100 g/ha (Plasmopara viticola): ≤ 100%
3 | CON=C(C1=NOCCO1)c1ccccc1Oc1nccc(OCCc2ccc(OC)cc2)n1 [Example 98] | –
2.7 | C=CC(C)Oc1ccnc(Oc2ccccc2C(=NOC)C2=NOCCO2)n1 (stereo not drawn) [Example 164] | –
2.1 | C#CCOc1ccnc(Oc2ccccc2C(=NOC)C2=NOCCO2)n1 [Example 160] | –
1.84 | CON=C(C1=NOCCO1)c1ccccc1Oc1nccc(N(C)Cc2ccccc2)n1 [Example 152] | –
4.3 | CON=C(C1=NOCCO1)c1ccccc1Oc1nccc(OCC2C(C=C(C)C)C2(C)C)n1 (stereo not drawn) [Example 162] | –
3.2 | CON=C(C1=NOCCO1)c1ccccc1Oc1nccc(OCc2ccc(C)cc2)n1 [Example 16] | –
1.8 | CON=C(C1=NOCCO1)c1ccccc1Oc1nccc(NC(C)c2ccccc2)n1 (stereo not drawn) [Example 171] | –
2.9 | CCC(C)Oc1ccnc(Oc2ccccc2C(=NOC)C2=NOCCO2)n1 (stereo not drawn) [Example 29] | –
3.3 | CON=C(C1=NOCCO1)c1ccccc1Oc1nccc(OCc2ccc(Cl)cc2)n1 [Example 22] | –
1.6 | CON=C(C1=NOCCO1)c1ccccc1Oc1nccc(NCc2ccccc2)n1 [Example 136] | –
3 | CON=C(C1=NOCCO1)c1ccccc1Oc1nccc(OCc2cccc(F)c2)n1 [Example 19] | –
3.3 | CON=C(C1=NOCCO1)c1ccccc1Oc1nccc(OCC2(C)CC2(Cl)Cl)n1 (stereo not drawn) [Example 172] | –
3.3 | CON=C(C1=NOCCO1)c1ccccc1Oc1nccc(OC(C(F)(F)F)C(F)(F)F)n1 [Example 42] | –
2.5 | CON=C(C1=NOCCO1)c1ccccc1Oc1nccc(OCC2CC2)n1 [Example 59] | –
3.3 | CON=C(C1=NOCCO1)c1ccccc1Oc1nccc(OCC=Cc2ccccc2)n1 [Example 161] | –
2.8 | CON=C(C1=NOCCO1)c1ccccc1Oc1nccc(OCc2ccc(OC)cc2)n1 [Example 156] | –

Reference: patent US6262051A, “Fungicidal methoximinomethyldioxazines” (Bayer Aktiengesellschaft, priority 1997, dated 2001)
